According to patent US7572606B1 (Nereus Pharmaceuticals, Inc., priority 2005, dated 2009):
pEC50: −log10 of the molar value. Peptide text beside a SMILES is read from it. * marks the point of attachment. Cbz = O=C(OCc1ccccc1)*

Columns and labels:
[1] = system: proteasome in packed whole blood lysate; assay: Dose response on PWBL lysates in vitro; format: biochemical, mouse; details: lysates of vehicle and 0.1 mg/kg Salinosporamide A treated animals
Description: Palayoor et al., Oncogene 18:7389-94 (1999).

Stability in solution = format: physicochemical; details: converted to compound VI-1B, mixture 7:3
Method: The reaction mixture was stirred at room temperature for about 3 hours. The solvent was evaporated from the reaction mixture to yield the compound of Formula II-48, which was purified by reversed phase HPLC using Ace 5u C18 column (150 mm×22 mm ID) with a solvent gradient of 10% to 70% H2O/Acetonitrile over 15 min, 70 to 100% Acetonitrile over 5 min, holding at 100% Acetonitrile for 4 min, at a flow rate of 14.5 ml/min. Diode array detector was used to monitor the purification process. Compound II-48 (10 mg) eluted as a pure compound at 8.255 min. […] Compound VI-1B: UV (Acetonitrile/H2O) λmax 235 (sh) nm; ESMS, m/z 585.2 (M+H)^+.

[2] = system: LeTx-induced cytotoxicity of RAW264.7 cells; details: cited from earlier work

SMILES | pEC50 [2] | also measured
CC[C@H](C)[C@H](NC(=O)[C@H]([C@@H](C)CC)N(C)C(C)=O)C(=O)N[C@H](C(=O)N[C@@H](CC(C)C)C(=O)[C@@]1(C)CO1)[C@@H](C)O [Epoxomicin] | – | hydrolysis of the proteasome substrate in PWBL lysates [1]: dose dependent inhibition in the hydrolysis of the proteasome substrate
C[C@]1(O)[C@@H](CCCl)C(=O)N[C@]1(C(=O)SCC(NC(=O)CCC(N)C(=O)O)C(=O)NCC(=O)O)[C@@H](O)[C@@H]1C=CCCC1 (stereo partly shown) [Formula II-48] | – | stability in solution (Stability in solution): unstable in solution
CC(=O)N[C@@H](CSC(=O)[C@]1([C@@H](O)C(C)C)NC(=O)[C@H](C)[C@@H]1O)C(=O)O [Lactacystin] | 5.52 | –
CC(C)C[C@@H](C=O)NC(=O)[C@H](CC(C)C)NC(=O)[C@H](CC(C)C)NC(=O)OCc1ccccc1 [MG132] (Cbz-Leu-Leu-Leu-aldehyde) | 5.52 | –
